Experimental data published in patent US9718817B2, “Aryl and heteroaryl ether compounds as ROR gamma modulators” (Glenmark Pharmaceuticals S.A., priority 2014, dated 2017).

Molecular target: T1, GST-tagged ROR gamma ligand binding domain (LBD) (Homo sapiens, UniProt P51449)
T1 construct: purchased Invitrogen
T1 sequence (P51449 269-508 limits assumed): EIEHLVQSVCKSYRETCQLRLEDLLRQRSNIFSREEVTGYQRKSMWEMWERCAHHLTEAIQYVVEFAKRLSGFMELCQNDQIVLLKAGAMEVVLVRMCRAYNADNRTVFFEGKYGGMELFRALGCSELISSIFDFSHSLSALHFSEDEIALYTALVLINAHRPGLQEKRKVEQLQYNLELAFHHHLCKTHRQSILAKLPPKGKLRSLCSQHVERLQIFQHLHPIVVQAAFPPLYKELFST
Test: TR-FRET assay for ROR gamma (LanthaScreen co-activator peptide recruitment)
Format: biochemical
Conditions: for IC50: class symbols, from dose response curve; for inhibition at 1 µM: compound 1 μM; for inhibition at 1 µM / inhibition at 10 µM: TR-FRET ratio 520/495, percent of control; for inhibition at 10 µM: compound 10 μM
Source text: The compounds described herein were screened for ROR gamma modulator activity using the TR-FRET assay by Lantha Screen as described in JBC 2011, 286, 26: 22707-10; and Drug Metabolism and Disposition 2009, 37, 10: 2069-78.
The assay is based on the principle that binding of the agonist to the ROR gamma causes a conformational change around helix 12 in the ligand binding domain, resulting in higher affinity for the co-activator peptide. ROR gamma being constitutively active, the Fluorescein-D22 co-activator peptide used in the assay is recruited in the absence of a ligand. Binding of the co-activator peptide, causes an increase in the TR-FRET signal while binding of an antagonist decreases the recruitment of the co-activator peptide, causing a decrease in the TR-FRET signal compared to control with no compound. The assay was performed using a two-step procedure, pre-incubation step with the compound followed by the detection step on addition of the anti-GST tagged terbium (Tb) and fluorescein tagged fluorophores as the acceptor.
Test compounds or reference compounds such as T0901317 (Calbiochem) were dissolved in dimethylsulfoxide (DMSO) to prepare 10.0 mM stock solutions and diluted to the desired concentration. The final concentration of DMSO in the reaction was 4% (v/v). The assay mixture was prepared by mixing 10 nM of the GST-tagged ROR gamma ligand binding domain (LBD) in the assay buffer containing 25 mM HEPES (pH 7.4), 100 mM NaCl, 5 mM DTT and 0.01% BSA with or without the desired concentration of the compound. The reaction was incubated at 22° C. for 1 hour. The pre-incubation step was terminated by addition of the detection mixture containing 300 nM Fluorescein-D22 co-activator peptide and 10 nM lantha screen Tb-anti GST antibody into the reaction mixture. After shaking for 5 minutes the reaction was further incubated for 1 hour at room temperature and read at 4° C. on an Infinite F500 reader as per the kit instructions (Invitrogen). The inhibition of test compound was calculated based on the TR-FRET ratio of 520/495. The activity was calculated as a percent of control reaction. IC50 values were calculated from dose response curve by nonlinear regression analysis using GraphPad Prism software.
Percentage inhibition at concentrations of 1.0 μM and 10.0 μM are given in the table along with IC50 (nM) details for selected examples.

Row | Compound | IC50 [nM] | inhibition at 1 µM [%] | inhibition at 10 µM [%]
1 | CCS(=O)(=O)c1ccc(CC(=O)Nc2ccc(OC(C)(C)c3ccc(F)cc3Cl)cc2)cc1 [Example 8, N-(4-{[2-(2-Chloro-4-fluorophenyl)propan-2-yl]oxy}phenyl)-2-[4-(ethylsulfonyl)phenyl]acetamide] | < 50 | 85 | 87.8
2 | CCS(=O)(=O)c1ccc(CC(=O)Nc2ccc(OC3(c4ccc(Cl)c(F)c4)CCC3)c(F)c2)cc1 [Example 119, N-{4-[1-(4-Chloro-3-fluorophenyl)-cyclobutoxy]-3-fluoro-phenyl}-2-(4-ethanesulfonyl-phenyl)-acetamide] | < 50 | 84.9 | 84.5
3 | CCC(CC)(Oc1ccc(NC(=O)Cc2ccc(S(=O)(=O)CC)cc2)cc1)c1ccc(F)cc1F [Example 13, N-{4-[1-(2,4-Difluoro-phenyl)-1-ethyl-propoxy]-phenyl}-2-(4-ethanesulfonyl-phenyl)-acetamide] | – | 56.2 | 68.8
4 | CCS(=O)(=O)c1ccc(CC(=O)Nc2ccc(OC3(c4ccc(Cl)c(F)c4)CCNCC3)cc2)cc1 [Example 43, N-(4-{[4-(4-Chloro-3-fluorophenyl)piperidin-4-yl]oxy}phenyl)-2-[4-(ethylsulfonyl)phenyl]acetamide] | – | 27.3 | 55
5 | CCS(=O)(=O)c1ccc(CC(=O)Nc2ccc(OC3(c4ccc(Cl)c(F)c4)CCN(C)CC3)cc2)cc1 [Example 44, N-{4-[4-(4-Chloro-3-fluoro-phenyl)-1-methyl-piperidin-4-yloxy]-phenyl}-2-(4-ethanesulfonyl-phenyl)-acetamide] | – | 44.6 | 70
6 | CCS(=O)(=O)c1ccc(CC(=O)Nc2ccc(OC(C)(C)c3ncc(Cl)cc3Cl)c(F)c2)cc1 [Example 95, N-{4-[1-(3,5-Dichloro-pyridin-2-yl)-1-methyl-ethoxy]-3-fluoro-phenyl}-2-(4-ethanesulfonyl-phenyl)-acetamide] | < 50 | 75.7 | 77.6
7 | CCS(=O)(=O)c1ccc(CC(=O)Nc2ccc(OC3(c4ccc(Cl)c(Cl)c4)COC3)cc2)cc1 [Example 46, N-{4-[3-(3,4-Dichlorophenyl)-oxetan-3-yloxy]-phenyl}-2-(4-ethanesulfonyl-phenyl)-acetamide] | > 100 | 68.1 | 86.3
8 | CCS(=O)(=O)c1ccc(CC(=O)Nc2ccc(C#CC(C)(C)Oc3cc(F)c(F)cc3F)cc2)cc1 [Example 74, 2-(4-Ethanesulfonyl-phenyl)-N-{4-[3-methyl-3-(2,4,5-trifluoro-phenoxy)-but-1-yn-1-yl]-phenyl}-acetamide] | < 50 | 73.6 | 78.8
9 | CCS(=O)(=O)c1ccc(CC(=O)Nc2ccc(OC3(c4ccc(Cl)cc4Cl)CCOCC3)c(F)c2)cc1 [Example 136, N-(4-((4-(2,4-Dichlorophenyl)tetrahydro-2H-pyran-4-yl)oxy)-3-fluorophenyl)-2-(4-(ethylsulfonyl)phenyl)acetamide] | < 50 | 71.6 | 79.3
10 | CCS(=O)(=O)c1ccc(CC(=O)Nc2ccc(OC3(c4ccc(Cl)c(Cl)c4)CC3)cc2)cc1 [Example 49, N-{4-[1-(3,4-Dichloro-phenyl)-cyclopropoxy]-phenyl}-2-(4-ethanesulfonyl-phenyl)-acetamide] | 50 to 100 | 69.1 | 80
11 | CCN(C(=O)C(C)(C)Oc1ccc(NC(=O)Cc2ccc(S(=O)(=O)CC)cc2)cc1F)c1ccc(Cl)c(F)c1 [Example 131, N-(4-Chloro-3-fluorophenyl)-N-ethyl-2-(4-(2-(4-(ethylsulfonyl)phenyl)acetamido)-2-fluorophenoxy)-2-methylpropanamide] | 50 to 100 | 69.8 | 72.9
12 | CCS(=O)(=O)c1ccc(CC(=O)Nc2ccc(C#CC(C)(C)Oc3ccc(OC(F)(F)F)cc3)cc2)cc1 [Example 77, 2-(4-Ethanesulfonyl-phenyl)-N-{4-[3-methyl-3-(4-trifluoromethoxy-phenoxy)-but-1-yn-1-yl]-phenyl}-acetamide] | < 50 | 82.8 | 87.1
13 | CCS(=O)(=O)c1ccc(CC(=O)Nc2ccc(OC(C)(C)c3ccc(Cl)c(Cl)c3)cc2)cc1 [Example 4, N-(4-{[2-(3,4-Dichlorophenyl)propan-2-yl]oxy}phenyl)-2-[4-(ethylsulfonyl)phenyl]acetamide] | < 50 | 80.5 | 86.4
14 | CCS(=O)(=O)c1ccc(CC(=O)Nc2ccc(OC3(c4ccc(Cl)c(Cl)c4)CCOCC3)cc2)cc1 [Example 39, N-{4-[4-(3,4-Dichloro-phenyl)-tetrahydro-pyran-4-yloxy]-phenyl}-2-(4-ethanesulfonyl-phenyl)-acetamide] | 50 to 100 | 87.7 | 94.8
15 | CCS(=O)(=O)c1ccc(CC(=O)Nc2ccc(OC(C)(C)c3ccc(F)cc3Cl)nc2)cc1 [Example 57, N-{6-[1-(2-Chloro-4-fluoro-phenyl)-1-methyl-ethoxy]-pyridin-3-yl}-2-(4-ethanesulfonyl-phenyl)-acetamide] | 50 to 100 | 78 | 91.3
16 | CCS(=O)(=O)c1ccc(CC(=O)Nc2ccc(C#CC(C)(C)Oc3cc(F)c(F)c(F)c3)cc2)cc1 [Example 71, 2-(4-Ethanesulfonyl-phenyl)-N-{4-[3-methyl-3-(3,4,5-trifluoro-phenoxy)-but-1-yn-1-yl]-phenyl}-acetamide] | < 50 | 75.9 | 79.9
17 | CCS(=O)(=O)c1ccc(CC(=O)Nc2ccc(OC3(c4ccc(Cl)c(F)c4)CC3)c(F)c2)cc1 [Example 100, N-{4-[1-(4-Chloro-3-fluoro-phenyl)-cyclopropoxy]-3-fluoro-phenyl}-2-(4-ethanesulfonyl-phenyl)-acetamide] | < 50 | 79.4 | 87.2
18 | CCS(=O)(=O)c1ccc(CC(=O)Nc2ccc(OC(C)(C)c3ccc(Cl)cc3Cl)nc2)cc1 [Example 58, N-(6-{[2-(2,4-Dichlorophenyl)propan-2-yl]oxy}pyridin-3-yl)-2-[4-(ethylsulfonyl)phenyl]acetamide] | < 50 | 83.7 | 86.7
19 | CCS(=O)(=O)c1ccc(CC(=O)Nc2ccc(OC3(c4ccc(Cl)c(Cl)c4)CC3)nc2)cc1 [Example 53, N-{6-[1-(3,4-Dichloro-phenyl)-cyclopropoxy]-pyridin-3-yl}-2-(4-ethanesulfonyl-phenyl)-acetamide] | – | 52.6 | 76.5
20 | CCS(=O)(=O)c1ccc(CC(=O)Nc2ccc(OC(C)(C)c3cc(Cl)cc(Cl)c3)cc2)cc1 [Example 5, N-(4-{[2-(3,5-Dichlorophenyl)propan-2-yl]oxy}phenyl)-2-[4-(ethylsulfonyl)phenyl]acetamide] | – | 58.2 | 66.9
21 | CCS(=O)(=O)c1ccc(CC(=O)Nc2ccc(C#CC(C)(C)Oc3ccc(Cl)c(F)c3)c(F)c2)cc1 [Example 106, N-{4-[3-(4-Chloro-3-fluoro-phenoxy)-3-methyl-but-1-ynyl]-3-fluoro-phenyl}-2-(4-ethanesulfonyl-phenyl)-acetamide] | < 50 | 81.9 | 85.9
22 | CCS(=O)(=O)c1ccc(CC(=O)Nc2ccc(OC(C)(C)c3noc(-c4ccc(Cl)cc4)n3)cc2)cc1 [Example 28, N-(4-{1-[5-(4-Chloro-phenyl)-[1,2,4]oxadiazol-3-yl]-1-methyl-ethoxy}-phenyl)-2-(4-ethanesulfonyl-phenyl)-acetamide] | – | 61.1 | 84.4
23 | CCCn1c(C(C)(C)Oc2ccc(F)cc2F)nc2cc(NC(=O)Cc3ccc(S(=O)(=O)CC)cc3)ccc21 [Example 115, N-{2-[1-(2,4-Difluoro-phenoxy)-1-methyl-ethyl]-1-propyl-1H-benzoimidazol-5-yl}-2-(4-ethanesulfonyl-phenyl)-acetamide] | < 50 | 82.4 | 88.3
